Data on 11 compounds can be found in patent US20240269317A1, “TARGETED ENCAPSULATION STRATEGIES FOR TREATMENT MODALITIES” (NUTARIA LTD., priority 2021, published 2024).

Assay [1] addresses T1, PPARγ (Homo sapiens, UniProt P37231).
T1 sequence (P37231 1-505): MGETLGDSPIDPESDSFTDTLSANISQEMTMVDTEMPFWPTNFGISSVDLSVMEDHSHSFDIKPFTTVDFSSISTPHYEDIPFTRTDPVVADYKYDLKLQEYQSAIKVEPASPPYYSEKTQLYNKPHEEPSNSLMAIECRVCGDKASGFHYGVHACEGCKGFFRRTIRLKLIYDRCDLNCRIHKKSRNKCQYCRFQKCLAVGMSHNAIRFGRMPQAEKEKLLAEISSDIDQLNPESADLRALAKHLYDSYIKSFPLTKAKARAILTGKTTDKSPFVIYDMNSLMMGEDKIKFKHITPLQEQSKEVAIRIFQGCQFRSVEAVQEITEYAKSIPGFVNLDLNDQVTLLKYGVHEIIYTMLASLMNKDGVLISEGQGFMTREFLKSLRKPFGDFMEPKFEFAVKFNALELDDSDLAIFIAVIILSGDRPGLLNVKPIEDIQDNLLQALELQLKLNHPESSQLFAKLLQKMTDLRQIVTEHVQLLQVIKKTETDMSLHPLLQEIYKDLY
The note with it: classified by ability to inhibit rosiglitazone-induced cellular responses; cited from earlier work.

For assay [2], the system named is nuclear transcription factor κB (NF-κB) activation. The note with it: cited from earlier work; for activation of IRAK-1, IKK-β, NF-κB, and MAP kinases (ERK, JNK, and p-38): LPS-stimulated murine peritoneal macrophages; for NF-κB activation: lipopolysaccharide (LPS)-stimulated murine peritoneal macrophages.
In assay [3] the test system is Human Neuroblastoma cells (SH Sy5Y cells cell line). The assay can be described thus: in-vitro curcumin delivery experiment (curcumin fluorescence). It counts as cell-based. The following applies: after 3.5 hours of treatment, relative to the 1 hour time point. The source says:
FIGS. 5a-b depict different time points of the same experiment. […] This effect might be due to intra-cellular metabolism of the curcumin present in the SLN 10+Caffeine 13 sample.

In assay [4] the target is T2, cyclooxygenase-2 (COX-2) (Homo sapiens, UniProt P35354).
T2 sequence (P35354 18-604): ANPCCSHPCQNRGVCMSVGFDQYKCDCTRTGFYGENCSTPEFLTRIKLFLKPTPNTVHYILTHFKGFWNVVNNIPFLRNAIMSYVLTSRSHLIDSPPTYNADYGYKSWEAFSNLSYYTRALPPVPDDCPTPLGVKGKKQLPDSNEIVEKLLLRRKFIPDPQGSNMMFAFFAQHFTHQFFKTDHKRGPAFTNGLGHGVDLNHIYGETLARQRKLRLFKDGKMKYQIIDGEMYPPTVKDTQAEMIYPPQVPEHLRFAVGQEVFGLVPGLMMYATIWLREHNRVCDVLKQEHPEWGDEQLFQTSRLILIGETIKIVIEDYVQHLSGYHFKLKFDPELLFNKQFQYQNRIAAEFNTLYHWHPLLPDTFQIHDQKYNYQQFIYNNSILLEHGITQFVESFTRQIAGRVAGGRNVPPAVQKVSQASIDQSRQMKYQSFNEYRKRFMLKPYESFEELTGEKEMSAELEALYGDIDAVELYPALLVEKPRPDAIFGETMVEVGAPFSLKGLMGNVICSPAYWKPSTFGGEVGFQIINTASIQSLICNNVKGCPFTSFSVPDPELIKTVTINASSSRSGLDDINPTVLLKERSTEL
The note with it: cited from earlier work.

In the case of `O=c1cc(-c2ccc(O)cc2)oc2cc(O)cc(O)c12` [apigenin], the “PPARγ activity (agonist, antagonist or modulator)” value (shortened to “PPARγ activity”) in assay [1] was “modulators”.

For `COc1ccc(-c2coc3cc(O)cc(O)c3c2=O)cc1` [biochanin A], the “PPARγ activity” value in assay [1] is “agonist”.

Take `CC(C)=CCC[C@](C)(O[C@@H]1O[C@H](CO)[C@@H](O)[C@H](O)[C@H]1O)[C@H]1CC[C@]2(C)[C@@H]1[C@H](O)C[C@@H]1[C@@]3(C)CC[C@H](O)C(C)(C)[C@@H]3CC[C@]12C` [compound K]: in assay [2], the “activation of IRAK-1, IKK-β, NF-κB, and MAP kinases (ERK, JNK, and p-38)” value is “significantly inhibited”; the NF-κB activation result was “inhibited”.

As for `COc1cc(/C=C/C(=O)CC(=O)/C=C/c2ccc(O)c(OC)c2)ccc1O` [curcumin], the curcumin fluorescence entry in assay [3] is “remained at the same levels”.

On to `COc1ccc(-c2cc(=O)c3c(O)cc(O)cc3o2)cc1O` [diosmetin], for which the “PPARγ activity” value in assay [1] is recorded as “antagonists”.

For the compound `CC(C)=CCC[C@](C)(O[C@@H]1O[C@H](CO[C@@H]2O[C@H](CO)[C@@H](O)[C@H](O)[C@H]2O)[C@@H](O)[C@H](O)[C@H]1O)[C@H]1CC[C@]2(C)[C@@H]1[C@H](O)C[C@@H]1[C@@]3(C)CC[C@H](O[C@@H]4O[C@H](CO)[C@@H](O)[C@H](O)[C@H]4O[C@@H]4O[C@H](CO)[C@@H](O)[C@H](O)[C@H]4O)C(C)(C)[C@@H]3CC[C@]12C` [ginsenoside Rb1], in assay [2], the “activation of IRAK-1, IKK-β, NF-κB, and MAP kinases (ERK, JNK, and p-38)” value is “significantly inhibited”; the NF-κB activation result is recorded as “inhibited”.

In the case of `O=c1cc(-c2ccc(O)c(O)c2)oc2cc(O)cc(O)c12` [luteolin], in assay [1], the “PPARγ activity” value is listed as “antagonists”.

`O=C1C[C@@H](c2ccc(O)cc2)Oc2cc(O)cc(O)c21` [naringenin]: in assay [1], the “PPARγ activity” value is listed as “modulators”.

Consider `O=c1c(O)c(-c2ccc(O)c(O)c2)oc2cc(O)cc(O)c12` [quercetin], for which the “PPARγ activity” value in assay [1] is on record as “antagonists”.

Turning to `O=C(/C=C/c1ccc(O)c(O)c1)O[C@H](Cc1ccc(O)c(O)c1)C(=O)O` [rosmarinic acid], the “PPARγ activity” value in assay [1] was “antagonists”.

In the case of C-phycocyanin, the “IC50 COX-2/IC50 COX-1 ratio” value in assay [4] was 0.04.
